# Laboratory results as given in patent US12233089B2, “Foods to promote better health and/or to maintain homeostasis and method of production thereof” (Vector Vitale IP LLC, priority 2021, dated 2025).
# Like-named read-outs stand apart in the source and are kept apart here. Marks after values point to notes of the source that are not given here.
# Tests used:
# [1] = system: MM-4 mouse melanoma cells; assay: In vitro analysis of viability of MM-4 mouse melanoma cells; type: cell-based
# Description: A second study was done on mouse model of lymphocytic leukemia, strain of L1210 leukemia cells, mouse melanoma model (MM-4 cell line derived from mouse melanoma cells of strain B16). Typical results are below.
# MM-4 cells = assay: Immunocytochemistry of Bcl-2, Bax and p53 expression in MM-4 cells; type: cell-based, mouse
# [2] = system: animals on a high-fat diet (DIO); assay: Diet induced obesity model (animals on a high-fat diet); type: in vivo, rats
# Description: The preclinical study of the effects of Zn-64 Asp on key pathogenetic links in the development and progression of obesity in diet-induced obesity models provides strong ground for efficient use of Zn-64 Asp as therapeutic agent in the treatment of overweight and obese patients.
# [3] = system: pro-inflammatory (IL-1, IL-6, IL-12, IFN-γ) and anti-inflammatory (IL-4, IL-10, TGF) cytokines; assay: Cytokine profile in the serum of experimental animals; type: in vivo, rats; conditions: M ± m, n = 10
# Description: As mentioned above, the pathogenesis of obesity is accompanied by a systemic chronic inflammatory process, the intensity of which can be assessed by the serum levels of pro- and anti-inflammatory cytokines.
# type 1 diabetes = assay: Development of type 1 diabetes in vivo
# [4] = system: rats with LPS-induced Parkinson's disease; assay: LPS-induced Parkinson's disease in rats; type: in vivo
# Description: Effects of ^64Zn-KLS-1 on Local and Systemic Immune Reactivity, Behavioural and Motor Functions in Rats with LPS-Induced Experimental Parkinsonism
# [5] = system: rat models of Aβ1-40-induced AD; assay: Rat model of Alzheimer's disease induced by infusion of Aβ 1-40; type: in vivo, rats
# Description: The Effect of ^64Zn-Asp on Cognitive Symptomatology in Rats with Different Models of Alzheimer's Disease Induced by Infusion of a Mix of Beta-Amyloid Peptides
# S. aureus ATCC 25923 = assay: Minimum bactericidal concentration (MBC), S. aureus; type: cell-based; conditions: 37° C. 24 h, Table 4
# Protocol: (§1) To evaluate the bactericidal action of the antibacterial composition based on light isotope ^64Zne the minimum bactericidal concentration (MBC) was determined by plating out 0.1 ml of the contents of each tube containing the antibacterial composition on Mueller-Hinton medium. The incubation was at 37° C. for 24 h.
# (§2) The MBC of the test samples was determined as the lowest concentration at which there was no growth on Mueller-Hinton agar medium.
# (§3) The conditions of the experiment were like those for Zn-64 compound.
# E. coli ATCC 25922 = assay: Minimum bactericidal concentration (MBC), E. coli; type: cell-based; conditions: 37° C. 24 h, Table 4
# Protocol: as §1, §2, §3
# P. aeruginosa ATCC 27853 [6] = assay: Minimum bactericidal concentration (MBC), P. aeruginosa; type: cell-based; conditions: 37° C. 24 h, Table 4
# Protocol: as §1, §2, §3
# P. aeruginosa ATCC 27853 [7] = assay: MIC (bacteriostatic activity), P. aeruginosa; type: cell-based
# Description: as §3
# [8] = Glucose and pancreatic islets in vivo, model not given (section on obesity and type 1 & 2 diabetes)
# [9] = system: pro-inflammatory (IL-1, IL-6, IL-12, IFN-γ) and anti-inflammatory (IL-4, IL-10, TGF) cytokines; conditions: adipose tissue, M ± m, n = 10
# Description: Given the above, the next phase was to find out whether the administration of Zn-64 stable isotope in aspartate form influences the cytokine profile in obese animals.
# Epstein-Barr virus = assay: Cytotoxicity and antiviral activity against Epstein-Barr virus
# MMP-2 = assay: Activities of latent and active forms of metalloproteinase 2 in MM-4 cells
# MMP-9 = assay: Activities of latent and active forms of metalloproteinase 9 in MM-4 cells; conditions: 16.69 μg/ml
# [10] = LPS-induced Parkinson's disease
# [11] = animals with AD, therapeutic administration
smiles,measurement,setting,value
"NC(CC(=O)[O-])C(=O)[O-].[64Zn+2] (stereo not drawn) [Zn64 Aspartate, ^64Zne aspartate]",suppressed proliferation of MM-4 cells compared with the control,[1]; 16.69 μg/ml,22.2%
same,reduction in the number of live melanoma cells compared with the control,[1]; 25.03 μg/ml,49.2%
same,IC20,[1]; MM-4 cells,16.69 µg/mL
same,IC50,[1]; MM-4 cells,25.03 µg/mL
same,decrease in the expression of Bcl-2 vs. control,MM-4 cells; 16.69 μg/ml,69.5%
same,expression of pro-apoptotic proteins Bax and p53,MM-4 cells; 16.69 μg/ml,did not have any effect
same,expression level of p53 (Y-5 clone),MM-4 cells; 25.03 μg/ml,does not influence
same,increased expression level of Bax compared with the control,MM-4 cells; 25.03 μg/ml,8.9 times
same,increased expression level of p53 (DO-7 clone) compared with the control,MM-4 cells; 25.03 μg/ml,9.5 times
same,expression of anti-apoptotic protein Bcl-2,MM-4 cells; concentration not given,does not have any effect
same,fatty degeneration (exocrine part of the pancreas),[2]; DIO group,Disappearance
same,"divalent metal ions (zinc, copper, manganese) in muscles, kidneys and liver",[2]; animal models of obesity,restoration of their normal physiological levels
same,activity of antioxidant enzymes (superoxide dismutase and catalase),[2]; animals on a high fat diet,increased activity
same,levels of lipid peroxidation products and protein oxidative modification,[2]; animals on a high fat diet,decrease
same,central and peripheral serotonin levels compared to untreated animal models of obesity,[2]; animals on a high-fat diet,restoration
same,decrease of the area of hepatocytes compared to the group with obesity,[2]; animals on a high-fat diet,41%
same,increase of the cross-sectional surface area of the islets of Langerhans compared with the obesity group,[2]; animals on a high-fat diet,43%
same,lipid metabolism,[2]; animals on a high-fat diet,Improvement
same,serotonin levels in the brain,[2]; animals on a high-fat diet,An increase
same,weight and the amount of food consumed compared to the untreated animals,[2]; animals on a high-fat diet,Reduction
same,IFN-γ level,[3]; control animals (C),4.6 ± 0.6 RU/mg protein
same,IL-1 level,[3]; control animals (C),3.5 ± 0.7 RU/mg protein
same,IL-4 level,[3]; control animals (C),4.6 ± 0.8 RU/mg protein
same,IL-6 level,[3]; control animals (C),4.3 ± 0.2^ RU/mg protein
same,IL-10 level,[3]; control animals (C),4.1 ± 0.5 RU/mg protein
same,IL-12 level,[3]; control animals (C),0.3 ± 0.04 RU/mg protein
same,TGF level,[3]; control animals (C),4.1 ± 0.4 RU/mg protein
same,IFN-γ level,[3]; diet induced obesity (DIO),4.1 ± 1.2 RU/mg protein
same,IL-1 level,[3]; diet induced obesity (DIO),4.2 ± 0.4 RU/mg protein
same,IL-4 level,[3]; diet induced obesity (DIO),5.6 ± 1.6 RU/mg protein
same,IL-6 level,[3]; diet induced obesity (DIO),5.1 ± 0.4 RU/mg protein
same,IL-10 level,[3]; diet induced obesity (DIO),6.8 ± 1.1 # RU/mg protein
same,IL-12 level,[3]; diet induced obesity (DIO),2.4 ± 0.06 # RU/mg protein
same,TGF level,[3]; diet induced obesity (DIO),5.7 ± 0.3 # RU/mg protein
same,decrease of glucose concentration,type 1 diabetes,26%
same,decrease of glycosylated hemoglobin,type 1 diabetes,30%
same,increase of serum insulin content,type 1 diabetes,13%
same,dopaminergic neuron loss,[4]; [10],Prevention
same,harmful side effects,[4]; [10],absence
same,local and systemic inflammation,[4]; [10],Inhibition
same,metabolic activity of microglia,[4]; [10],increase
same,number of dopaminergic neurons in the substantia nigra,"[4]; LPS-induced Parkinson's disease, rats",virtually full restoration
same,systemic inflammatory responses,"[4]; therapeutic administration, LPS-induced parkinsonism",reduces
same,cognitive function,[5]; AD models,significantly improved
same,"body weight, water and feed intake",[5]; AD rats treated for 10 days,restored
same,neuroinflammation,[5]; Aβ1-40-induced AD,almost complete resolution
same,staining intensity of TH-immuno-positive cells,"[5]; Aβ1-40 AD rats, hippocampal dopaminergic neurons",increased
same,absolute number of circulating leukocytes,[5]; [11],complete normalization
same,neutrophilic lymphocytic coefficient (NLC),[5]; [11],complete normalization
same,MBC,S. aureus ATCC 25923,0.023* mcg ^64Zne/ml
same,MBC,E. coli ATCC 25922,0.73* mcg ^64Zne/ml
same,MBC,P. aeruginosa ATCC 27853 [6],>750 mcg ^64Zne/ml
same,bacteriostatic activity (in words),P. aeruginosa ATCC 27853 [7],best results
same,glucose concentration compared to the control group,[8],drop
same,increase of insulin producing pancreatic islets area,[8],more than 100%
same,IFN-γ level,[9]; control animals (C),5.0 ± 0.8^ RU/mg protein
same,IL-1 level,[9]; control animals (C),4.9 ± 1.7^ RU/mg protein
same,IL-4 level,[9]; control animals (C),5.0 ± 0.4^ RU/mg protein
same,IL-6 level,[9]; control animals (C),5.4 ± 0.3^ RU/mg protein
same,IL-10 level,[9]; control animals (C),4.9 ± 0.2^ RU/mg protein
same,IL-12 level,[9]; control animals (C),1.0 ± 0.03 RU/mg protein
same,TGF level,[9]; control animals (C),5.1 ± 0.6^ RU/mg protein
same,IFN-γ level,[9]; diet induced obesity (DIO),4.9 ± 0.8 RU/mg protein
same,IL-1 level,[9]; diet induced obesity (DIO),5.8 ± 1.8 RU/mg protein
same,IL-4 level,[9]; diet induced obesity (DIO),5.1 ± 1.2 RU/mg protein
same,IL-6 level,[9]; diet induced obesity (DIO),6.1 ± 0.7 RU/mg protein
same,IL-10 level,[9]; diet induced obesity (DIO),5.8 ± 0.8 RU/mg protein
same,IL-12 level,[9]; diet induced obesity (DIO),1.99 ± 0.01 RU/mg protein
same,TGF level,[9]; diet induced obesity (DIO),5.2 ± 0.9 RU/mg protein
same,assessment of cytotoxicity and antiviral activity for anti-EBV infection,Epstein-Barr virus,most promising
same,decrease in the activity of active MMP-2 compared with the control,MMP-2; 16.69 μg/ml,66.8%
same,decrease in the activity of latent pro-MMP-2 compared with the control,MMP-2; 16.69 μg/ml,76.5%
same,suppression of the activity of MMP-2 compared with the control,MMP-2; 25.03 μg/ml,76%
same,decrease in the activity of active MMP-9 compared with the control,MMP-9,23.8%
same,decrease in the activity of latent pro-MMP-9 compared with the control,MMP-9,61.2%
